Here are results for seven compounds from PMC6804443 (Acta Pharmaceutica Sinica. B, 2019).

The test system of data set [1] is P450 enzymes, UGTs, SULTs, OATP1B1/1B3, OAT1/3, OCT2, MATE1/2-K, MDR1, BCRP. It is filed as in vitro ADME, human. Conditions: data pending publication elsewhere.
Data set [2] is classed as in vivo. Conditions: human; XueBiJing at label dose 100 mL.
The conditions of data set [3]: cited from earlier work; for fu-p (unbound fraction in plasma): human plasma; for Cmax / VSS / t1/2 / Major elimination route / fe-U (fraction of dose excreted unchanged into urine): human; for Cmax / VSS / t1/2: XueBiJing 100 mL via 75-min intravenous infusion.
Data set [4] has as its system P450 enzymes, UGTs, SULTs, OATP1B1/1B3, OAT1/3, OCT2, MATE1/2-K, MDR1, BCRP. Conditions: cited from earlier work.
For data set [5] the following is noted: XueBiJing compounds, cited from earlier work; for LogD(7.4): pH 7.4.
For data set [6] the following is noted: XueBiJing compounds; cited from earlier work.
The target of data set [7] is T1, OAT3 (Homo sapiens, UniProt Q8TCC7).
T1 sequence (Q8TCC7 1-542): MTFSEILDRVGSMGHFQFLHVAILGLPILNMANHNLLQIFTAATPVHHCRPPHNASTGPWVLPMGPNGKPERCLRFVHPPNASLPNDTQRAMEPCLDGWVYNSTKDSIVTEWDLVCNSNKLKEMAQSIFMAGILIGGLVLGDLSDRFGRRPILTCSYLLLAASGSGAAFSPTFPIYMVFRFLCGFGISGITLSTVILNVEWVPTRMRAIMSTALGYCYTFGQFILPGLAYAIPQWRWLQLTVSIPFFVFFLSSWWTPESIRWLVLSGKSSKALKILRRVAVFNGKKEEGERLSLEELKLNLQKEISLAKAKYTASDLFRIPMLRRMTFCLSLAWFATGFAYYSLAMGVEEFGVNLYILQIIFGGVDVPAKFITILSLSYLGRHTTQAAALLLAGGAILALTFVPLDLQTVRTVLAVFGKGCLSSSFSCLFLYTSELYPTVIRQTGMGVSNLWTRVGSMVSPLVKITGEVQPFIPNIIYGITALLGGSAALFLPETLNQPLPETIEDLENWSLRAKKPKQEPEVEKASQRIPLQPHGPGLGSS
Briefly: Reported in vitro interaction with OAT3. Format: in vitro ADME. Conditions: estimated from reported Cmax, fu-p and literature potency.

In data set [8] the target is T2, OATP1B3 (Homo sapiens, UniProt Q9NPD5).
T2 sequence (Q9NPD5 1-702): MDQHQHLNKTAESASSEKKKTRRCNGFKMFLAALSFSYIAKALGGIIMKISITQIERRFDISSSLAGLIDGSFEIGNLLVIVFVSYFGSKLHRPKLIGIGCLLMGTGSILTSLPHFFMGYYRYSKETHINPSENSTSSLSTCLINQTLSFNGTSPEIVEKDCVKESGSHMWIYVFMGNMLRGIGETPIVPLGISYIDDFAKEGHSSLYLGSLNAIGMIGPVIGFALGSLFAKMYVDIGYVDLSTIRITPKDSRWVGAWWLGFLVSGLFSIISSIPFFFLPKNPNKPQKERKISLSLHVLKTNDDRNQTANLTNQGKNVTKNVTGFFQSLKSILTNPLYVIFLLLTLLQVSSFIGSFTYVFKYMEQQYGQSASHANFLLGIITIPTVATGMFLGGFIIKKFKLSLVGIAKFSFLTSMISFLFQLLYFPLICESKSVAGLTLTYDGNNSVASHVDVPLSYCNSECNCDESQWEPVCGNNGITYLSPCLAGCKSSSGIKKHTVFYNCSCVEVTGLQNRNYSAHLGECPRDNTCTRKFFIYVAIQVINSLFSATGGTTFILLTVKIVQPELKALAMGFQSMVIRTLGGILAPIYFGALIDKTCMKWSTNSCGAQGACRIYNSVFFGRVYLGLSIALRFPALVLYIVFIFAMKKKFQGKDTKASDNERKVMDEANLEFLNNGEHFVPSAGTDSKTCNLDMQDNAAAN
Particulars: IC50, OATP1B3 [X10], mean ± SD (n = 3).

In data set [9] the target is T2, OATP1B3. Conditions: antibiotic as perpetrator, salvianolic acid B (X10) as victim; (Cmax × fu-p × R)/IC50.
For data set [10], the target named is T2, OATP1B3. Put plainly: in vitro.
For data set [11], the target named is T3, OAT1 (Homo sapiens, UniProt Q4U2R8).
T3 sequence (Q4U2R8 1-563): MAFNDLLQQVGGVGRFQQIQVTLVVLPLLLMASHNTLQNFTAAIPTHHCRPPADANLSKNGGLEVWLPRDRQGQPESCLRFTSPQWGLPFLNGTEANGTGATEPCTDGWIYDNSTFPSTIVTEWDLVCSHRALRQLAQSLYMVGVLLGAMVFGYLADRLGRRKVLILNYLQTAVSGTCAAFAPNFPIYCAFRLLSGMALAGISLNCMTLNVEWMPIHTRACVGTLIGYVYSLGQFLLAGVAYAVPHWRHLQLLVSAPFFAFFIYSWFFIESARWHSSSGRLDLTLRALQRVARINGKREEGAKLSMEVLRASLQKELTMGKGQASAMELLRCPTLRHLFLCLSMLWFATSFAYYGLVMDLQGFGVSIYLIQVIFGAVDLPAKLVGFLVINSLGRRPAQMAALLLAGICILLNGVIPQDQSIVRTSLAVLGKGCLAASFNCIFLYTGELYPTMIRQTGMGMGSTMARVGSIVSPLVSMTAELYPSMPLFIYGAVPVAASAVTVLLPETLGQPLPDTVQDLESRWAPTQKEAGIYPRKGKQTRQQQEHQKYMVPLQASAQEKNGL
Put plainly: OAT1 inhibition by XueBiJing compounds, transfected HEK293 cells [PAH]. Format: in vitro ADME. Particulars: for Inhibition of OAT1: 100 μmol/L; for IC50: read-out: IC50, OAT1 [PAH], mean ± SD (n = 3).

Data set [12] concerns CYP2B6. Briefly: CYP2B6 induction by XueBiJing compounds in cryopreserved human hepatocytes. It is filed as in vitro ADME. Particulars: higher concentrations; range over the named compounds and enzymes.
For data set [13], the system named is CYP3A4.
In data set [14] the target is T3, OAT1. Particulars: read-out: Km as OAT1 substrate; cited from earlier work.
Data set [15] has as its target T4, OAT2 (Homo sapiens, UniProt Q9Y694).
T4 sequence (Q9Y694 1-546 isoform Q9Y694-2): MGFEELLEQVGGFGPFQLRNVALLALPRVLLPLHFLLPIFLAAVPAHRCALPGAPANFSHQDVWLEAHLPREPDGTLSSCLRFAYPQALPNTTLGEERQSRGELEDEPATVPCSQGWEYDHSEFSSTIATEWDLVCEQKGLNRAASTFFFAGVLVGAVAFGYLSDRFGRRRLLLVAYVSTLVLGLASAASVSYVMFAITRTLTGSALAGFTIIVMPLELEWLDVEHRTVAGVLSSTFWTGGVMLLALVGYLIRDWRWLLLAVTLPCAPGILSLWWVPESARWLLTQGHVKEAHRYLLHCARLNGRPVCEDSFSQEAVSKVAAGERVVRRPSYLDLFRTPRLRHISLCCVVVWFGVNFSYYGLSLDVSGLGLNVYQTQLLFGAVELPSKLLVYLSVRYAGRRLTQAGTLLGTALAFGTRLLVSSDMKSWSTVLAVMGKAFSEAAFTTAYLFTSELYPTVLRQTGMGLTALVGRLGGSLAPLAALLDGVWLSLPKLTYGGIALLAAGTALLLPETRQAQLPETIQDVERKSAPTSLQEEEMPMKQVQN
Particulars: read-out: Km as OAT2 substrate; cited from earlier work.

The target of data set [16] is T1, OAT3. Particulars: read-out: Km as OAT3 substrate; cited from earlier work.
In data set [17] the test system is CYP1A2. Particulars: hepatocytes.
For data set [18], the target named is T5, CYP2C9 (Homo sapiens, UniProt P11712). Put plainly: CYP2C9 inhibition by XueBiJing compounds, cDNA-expressed enzyme [MFC→HFC]. Format: in vitro ADME. Conditions: 100 μmol/L.
In data set [19] the target is T6, UGT1A9 (Homo sapiens, UniProt O60656).
T6 sequence (O60656 26-530): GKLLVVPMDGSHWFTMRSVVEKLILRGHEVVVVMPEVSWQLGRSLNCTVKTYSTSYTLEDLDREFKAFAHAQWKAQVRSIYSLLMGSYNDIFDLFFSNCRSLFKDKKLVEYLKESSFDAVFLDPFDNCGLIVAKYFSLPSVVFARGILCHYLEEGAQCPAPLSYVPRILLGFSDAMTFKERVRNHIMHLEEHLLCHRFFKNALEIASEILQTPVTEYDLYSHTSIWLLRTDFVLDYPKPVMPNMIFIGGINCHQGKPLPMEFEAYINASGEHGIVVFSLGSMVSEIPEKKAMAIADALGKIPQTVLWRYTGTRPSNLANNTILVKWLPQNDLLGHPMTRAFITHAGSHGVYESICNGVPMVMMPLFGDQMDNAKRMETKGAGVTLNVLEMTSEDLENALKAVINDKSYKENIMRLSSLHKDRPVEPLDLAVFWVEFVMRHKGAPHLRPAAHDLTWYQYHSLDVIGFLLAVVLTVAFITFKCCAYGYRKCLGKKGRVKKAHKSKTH
Put plainly: UGT1A9 inhibition by XueBiJing compounds, cDNA-expressed enzyme [4-MU→4-MUG]. It is filed as in vitro ADME. Particulars: 100 μmol/L.

Data set [20] deals with T5, CYP2C9. It is filed as in vitro ADME.

Where two headings read alike, the source gives them in different places.

T5 sequence (P11712 whole entry): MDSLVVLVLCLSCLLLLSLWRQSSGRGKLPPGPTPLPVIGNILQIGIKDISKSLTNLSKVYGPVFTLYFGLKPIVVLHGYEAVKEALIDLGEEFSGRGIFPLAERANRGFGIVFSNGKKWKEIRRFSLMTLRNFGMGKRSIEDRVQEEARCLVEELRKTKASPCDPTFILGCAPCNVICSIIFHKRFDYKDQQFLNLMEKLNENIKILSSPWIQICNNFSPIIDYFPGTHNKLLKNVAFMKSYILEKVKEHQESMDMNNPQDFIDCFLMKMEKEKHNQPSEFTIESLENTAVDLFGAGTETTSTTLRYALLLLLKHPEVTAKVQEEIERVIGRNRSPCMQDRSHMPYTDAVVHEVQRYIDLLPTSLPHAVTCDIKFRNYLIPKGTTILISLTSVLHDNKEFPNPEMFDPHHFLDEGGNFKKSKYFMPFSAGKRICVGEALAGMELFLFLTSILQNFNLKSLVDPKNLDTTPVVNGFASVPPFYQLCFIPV

`O=Cc1ccc(O)c(O)c1` [PCD, protocatechuic aldehyde]: the “Related metabolism and transport data (substrate status)” value (shortened to “Related metabolism and transport data”) in [1] was “PCD is metabolized by ALDH and COMT. Impaired ALDH activity can be compensated by COMT, but could result in decreased systemic exposure to X11 ^a”.

As a reminder, the Cmax is the maximum level reached in the sampled fluid or tissue. For orientation: pKa means the negative logarithm of the acid dissociation constant. With `C[C@@]12C[C@@]3(O)O[C@@H](O1)[C@]1(COC(=O)c4ccccc4)[C@H]3C[C@@]12O[C@@H]1O[C@H](CO)[C@@H](O)[C@H](O)[C@H]1O` [X2, paeoniflorin], the “Unbound Cmax” value in [2] was determined as 15 µmol/L. For the same compound, in data set [3], the “fu-p (unbound fraction in plasma)” value was 82%, the maximum concentration (Cmax) was 18200 nM, the VSS is on record as 0.19 L/kg and the t1/2 was 66 min. In data set [3], the Major elimination route result was “Renal excretion, GF-based” and the “fe-U (fraction of dose excreted unchanged into urine)” value is listed as 63%. Also, the “Related metabolism and transport data” value in data set [4] is “Not the substrate of P450 enzymes, UGTs, SULTs, OATP1B1/1B3, OAT1/3, OCT2, MATE1/2-K, MDR1, or BCRP”. Further, in [5], the pKa is given as 11.5 and the “LogD(7.4)” value was 0.1. Further, the Membrane permeability entry in data set [6] is recorded as “Poor”.

As a reminder, the IC50 is the concentration needed to halve the response being measured. For orientation: inhibition means the drop in the measured response relative to a control, in per cent. Higher therefore signals a response far below the control. Turning to `Cn1nnnc1SCC1=C(C(=O)O)N2C(=O)[C@@H](NC(=O)[C@H](O)c3ccccc3)[C@H]2SC1` [A11, cefamandole], the “DDI index, inhibiting OAT3” value in data set [7] was not below 1.0. Further, in data set [8], the IC50 came out at 53 ± 20 µM. In addition, the “Inhibition DDI index, OATP1B3” value in [9] came to 1.70. Further, in data set [10], the inhibition at 1000 μmol/L was more than 90%.

A word on the Km: it is the substrate concentration at which the rate is half of its maximum. `COc1cc(CC(O)C(=O)O)ccc1O` (centres unmarked) [X9, 3-O-methyltanshinol]: in [11], the “Inhibition of OAT1” value is more than 50% and the IC50 came out at 106 ± 26 µM. For the same compound, in [12], the “mRNA-T/U ratio, CYP2B6” value lay in the range of 4.0 to 9.6. Further, in [3], the Cmax was 10 nM and the Major elimination route entry was “Renal excretion, TS&GF-based”. Besides, the “mRNA-T/U ratio, CYP3A4” value in [13] (higher concentrations, range over the named compounds and enzymes) is 4.0 to 9.6. In [5], the pKa is given as 3.8 and the “LogD(7.4)” value is recorded as −3.3. Moreover, the Michaelis constant (Km) in data set [14] was 219 µM. Further, the Km in [15] is 2.85 mM. In addition, the Km in [16] was 0.871 mM. Moreover, in data set [6], the Membrane permeability result is reported as “Good”.

Consider `CC(=O)NC[C@H]1CN(c2ccc(N3CCOCC3)c(F)c2)C(=O)O1` [A29, linezolid], for which the “DDI index, inhibiting OAT3” value in data set [7] is listed as not below 1.0.

Regarding `O=C(O)C(O)Cc1ccc(O)c(O)c1` (centres unmarked) [X8, tanshinol], in data set [11], the “Inhibition of OAT1” value is given as more than 50% and the IC50 is 78 ± 14 µM. The “mRNA-T/U ratio, CYP2B6” value in data set [12] lay in the range of 4.0 to 9.6. Further, in [3], the “fu-p (unbound fraction in plasma)” value is reported as 99%, the Cmax is 100 nM, the VSS is 1.13 L/kg and the t1/2 was 42 min. For the same compound, in data set [3], the “fe-U (fraction of dose excreted unchanged into urine)” value was 59%. In data set [4], the “Related metabolism and transport data” value was “COMT substrate”. In data set [17], the “EA-T/U ratio (treated-cell/untreated-cell ratio of enzyme activity), CYP1A2” value is 2.1–4.9 and the “mRNA-T/U ratio, CYP1A2” value lay within 4.0 to 9.6. Moreover, in [13] (hepatocytes), the “EA-T/U ratio, CYP3A4” value is 2.1–4.9 and the “mRNA-T/U ratio, CYP3A4” value is listed as 4.0 to 9.6. Also, in data set [5], the pKa is 3.8 and the “LogD(7.4)” value was −3.3. Besides, in [14], the Km was 121 µM. Besides, the Km in data set [15] is 0.859 mM. The Km in data set [16] was 1.89 mM.

Regarding oxypaeoniflorin [X3], the “Inhibition of CYP2C9” value in data set [18] is 55%. In addition, the “Inhibition of UGT1A9” value in data set [19] is 57%. Moreover, in data set [20], the “Time-dependent inhibition of CYP2C9” value is “negligible”.
